Assay results taken from PubChem BioAssay (NCI).
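Five compound concentrations were applied to cells in 96-well plates for 48 hours; endpoints were derived by simple linear interpolation of the resulting dose-response curve. TGI: total growth inhibition.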

Tests used:
Experiment in all cases: NCI tumour cell line growth inhibition, 48 h
SF-295 CNS = test system: SF-295 CNS
DMS 273 small cell lung = test system: DMS 273 small cell lung
ACHN renal = test system: ACHN renal
SN12C renal = test system: SN12C renal
SNB-75 CNS = test system: SNB-75 CNS
CCRF-CEM leukemia = test system: CCRF-CEM leukemia
UO-31 renal = test system: UO-31 renal
CAKI-1 renal = test system: CAKI-1 renal
UACC-257 melanoma = test system: UACC-257 melanoma
RPMI-8226 leukemia = test system: RPMI-8226 leukemia
SK-OV-3 ovarian = test system: SK-OV-3 ovarian
SK-MEL-28 melanoma = test system: SK-MEL-28 melanoma
MOLT-4 leukemia = test system: MOLT-4 leukemia
COLO 205 colon = test system: COLO 205 colon
MALME-3M melanoma = test system: MALME-3M melanoma
A549 NSCLC = test system: A549 NSCLC
U251 CNS = test system: U251 CNS
LXFL 529 NSCLC = test system: LXFL 529 NSCLC
DLD-1 colon = test system: DLD-1 colon
KM12 colon = test system: KM12 colon
UACC-62 melanoma = test system: UACC-62 melanoma
DMS 114 small cell lung = test system: DMS 114 small cell lung
NCI-H226 lung = test system: NCI-H226 lung
XF 498 CNS = test system: XF 498 CNS
SW-620 colon = test system: SW-620 colon
NCI-H460 lung = test system: NCI-H460 lung
HOP-62 NSCLC = test system: HOP-62 NSCLC
RXF-631 renal = test system: RXF-631 renal
OVCAR-3 ovarian = test system: OVCAR-3 ovarian
HCC-2998 colon = test system: HCC-2998 colon
SNB-78 CNS = test system: SNB-78 CNS
HL-60(TB) leukemia = test system: HL-60(TB) leukemia
SK-MEL-5 melanoma = test system: SK-MEL-5 melanoma
HOP-92 NSCLC = test system: HOP-92 NSCLC
HOP-18 NSCLC = test system: HOP-18 NSCLC
786-0 renal = test system: 786-0 renal
IGROV1 ovarian = test system: IGROV1 ovarian
RXF 393 renal = test system: RXF 393 renal
A498 renal = test system: A498 renal
SF-539 CNS = test system: SF-539 CNS
SF-268 CNS = test system: SF-268 CNS
HT29 colon = test system: HT29 colon
OVCAR-4 ovarian = test system: OVCAR-4 ovarian
HCT-15 colon = test system: HCT-15 colon
K-562 leukemia = test system: K-562 leukemia
M14 melanoma = test system: M14 melanoma
SK-MEL-2 melanoma = test system: SK-MEL-2 melanoma
M19-MEL melanoma = test system: M19-MEL melanoma
NCI-H23 lung = test system: NCI-H23 lung
OVCAR-5 ovarian = test system: OVCAR-5 ovarian
LOX IMVI melanoma = test system: LOX IMVI melanoma
KM20L2 colon = test system: KM20L2 colon
EKVX NSCLC = test system: EKVX NSCLC
SNB-19 CNS = test system: SNB-19 CNS
SR leukemia = test system: SR leukemia
TK-10 renal = test system: TK-10 renal
OVCAR-8 ovarian = test system: OVCAR-8 ovarian
NCI-H522 lung = test system: NCI-H522 lung
HCT-116 colon = test system: HCT-116 colon

CCOC(=O)NC1C2CC(=O)C(O2)C1OCc1ccccc1 (stereo not drawn)
TGI (SF-295 CNS): > 100 µM | TGI (DMS 273 small cell lung): > 100 µM | TGI (ACHN renal): > 100 µM | TGI (SN12C renal): > 100 µM | TGI (SNB-75 CNS): > 100 µM | TGI (CCRF-CEM leukemia): > 100 µM | TGI (UO-31 renal): > 100 µM | TGI (CAKI-1 renal): > 100 µM | TGI (UACC-257 melanoma): > 100 µM | TGI (RPMI-8226 leukemia): > 100 µM | TGI (SK-OV-3 ovarian): > 100 µM | TGI (SK-MEL-28 melanoma): > 100 µM | TGI (MOLT-4 leukemia): > 100 µM | TGI (COLO 205 colon): > 100 µM | TGI (MALME-3M melanoma): > 100 µM | TGI (A549 NSCLC): > 100 µM | TGI (U251 CNS): > 100 µM | TGI (LXFL 529 NSCLC): > 100 µM | TGI (DLD-1 colon): > 100 µM | TGI (KM12 colon): > 100 µM | TGI (UACC-62 melanoma): > 100 µM | TGI (DMS 114 small cell lung): > 100 µM | TGI (NCI-H226 lung): > 100 µM | TGI (XF 498 CNS): > 100 µM | TGI (SW-620 colon): > 100 µM | TGI (NCI-H460 lung): > 100 µM | TGI (HOP-62 NSCLC): > 100 µM | TGI (RXF-631 renal): > 100 µM | TGI (OVCAR-3 ovarian): > 100 µM | TGI (HCC-2998 colon): > 100 µM | TGI (SNB-78 CNS): > 100 µM | TGI (HL-60(TB) leukemia): > 100 µM | TGI (SK-MEL-5 melanoma): > 100 µM | TGI (HOP-92 NSCLC): > 100 µM | TGI (HOP-18 NSCLC): > 100 µM | TGI (786-0 renal): > 100 µM | TGI (IGROV1 ovarian): > 100 µM | TGI (RXF 393 renal): > 100 µM | TGI (A498 renal): > 100 µM | TGI (SF-539 CNS): > 100 µM | TGI (SF-268 CNS): > 100 µM | TGI (HT29 colon): > 100 µM | TGI (OVCAR-4 ovarian): > 100 µM | TGI (HCT-15 colon): > 100 µM | TGI (K-562 leukemia): > 100 µM | TGI (M14 melanoma): > 100 µM | TGI (SK-MEL-2 melanoma): > 100 µM | TGI (M19-MEL melanoma): > 100 µM | TGI (NCI-H23 lung): > 100 µM | TGI (OVCAR-5 ovarian): > 100 µM | TGI (LOX IMVI melanoma): > 100 µM | TGI (KM20L2 colon): > 100 µM

NC(N)=N/N=C(/CC1OC(=O)c2ccccc21)c1ccc2ccccc2c1 (stereo not drawn)
TGI (SF-295 CNS): > 100 µM | TGI (DMS 273 small cell lung): 44.9 µM | TGI (ACHN renal): 33.7 µM | TGI (SN12C renal): 42.2 µM | TGI (SNB-75 CNS): 47.7 µM | TGI (CCRF-CEM leukemia): 43.8 µM | TGI (UO-31 renal): 32.7 µM | TGI (CAKI-1 renal): > 100 µM | TGI (UACC-257 melanoma): 28.7 µM | TGI (RPMI-8226 leukemia): 48 µM | TGI (SK-OV-3 ovarian): 74 µM | TGI (SK-MEL-28 melanoma): 35.2 µM | TGI (MOLT-4 leukemia): 79.4 µM | TGI (COLO 205 colon): 39 µM | TGI (MALME-3M melanoma): 30 µM | TGI (U251 CNS): 30.1 µM | TGI (EKVX NSCLC): 52.9 µM | TGI (LXFL 529 NSCLC): 27.7 µM | TGI (DLD-1 colon): 28 µM | TGI (KM12 colon): 26.6 µM | TGI (UACC-62 melanoma): 34.7 µM | TGI (DMS 114 small cell lung): 25.6 µM | TGI (NCI-H226 lung): 32.4 µM | TGI (XF 498 CNS): 20.9 µM | TGI (SNB-19 CNS): > 100 µM | TGI (NCI-H460 lung): 32.5 µM | TGI (HOP-62 NSCLC): 42.1 µM | TGI (RXF-631 renal): 65.2 µM | TGI (SR leukemia): 33.6 µM | TGI (OVCAR-3 ovarian): 38.3 µM | TGI (HCC-2998 colon): 31.1 µM | TGI (SNB-78 CNS): > 100 µM | TGI (HL-60(TB) leukemia): 41.9 µM | TGI (SK-MEL-5 melanoma): 35.8 µM | TGI (HOP-92 NSCLC): 55 µM | TGI (HOP-18 NSCLC): 43.3 µM | TGI (786-0 renal): 32.4 µM | TGI (IGROV1 ovarian): 47.2 µM | TGI (A498 renal): 33.4 µM | TGI (TK-10 renal): 35 µM | TGI (SF-539 CNS): 31.9 µM | TGI (SF-268 CNS): 31.8 µM | TGI (HT29 colon): 45.7 µM | TGI (OVCAR-4 ovarian): 37.4 µM | TGI (OVCAR-8 ovarian): 31.5 µM | TGI (HCT-15 colon): 31.7 µM | TGI (K-562 leukemia): 67 µM | TGI (M14 melanoma): 30.3 µM | TGI (SK-MEL-2 melanoma): > 100 µM | TGI (M19-MEL melanoma): 31.6 µM | TGI (NCI-H23 lung): 88.6 µM | TGI (OVCAR-5 ovarian): > 100 µM | TGI (LOX IMVI melanoma): > 100 µM | TGI (KM20L2 colon): 57.2 µM | TGI (NCI-H522 lung): 28.8 µM

CC(=O)N1CCc2[nH]c3ccccc3c2CC1
TGI (SF-295 CNS): > 100 µM | TGI (DMS 273 small cell lung): > 100 µM | TGI (ACHN renal): > 100 µM | TGI (SNB-75 CNS): 98.9 µM | TGI (CCRF-CEM leukemia): > 100 µM | TGI (CAKI-1 renal): > 100 µM | TGI (UACC-257 melanoma): > 100 µM | TGI (RPMI-8226 leukemia): > 100 µM | TGI (SK-OV-3 ovarian): > 100 µM | TGI (SK-MEL-28 melanoma): > 100 µM | TGI (MOLT-4 leukemia): > 100 µM | TGI (COLO 205 colon): > 100 µM | TGI (MALME-3M melanoma): > 100 µM | TGI (A549 NSCLC): > 100 µM | TGI (U251 CNS): > 100 µM | TGI (EKVX NSCLC): > 100 µM | TGI (LXFL 529 NSCLC): > 100 µM | TGI (DLD-1 colon): > 100 µM | TGI (KM12 colon): > 100 µM | TGI (UACC-62 melanoma): > 100 µM | TGI (DMS 114 small cell lung): > 100 µM | TGI (XF 498 CNS): > 100 µM | TGI (SW-620 colon): > 100 µM | TGI (NCI-H460 lung): > 100 µM | TGI (HOP-62 NSCLC): > 100 µM | TGI (RXF-631 renal): > 100 µM | TGI (OVCAR-3 ovarian): > 100 µM | TGI (HCC-2998 colon): > 100 µM | TGI (SNB-78 CNS): > 100 µM | TGI (HL-60(TB) leukemia): > 100 µM | TGI (SK-MEL-5 melanoma): > 100 µM | TGI (HCT-116 colon): > 100 µM | TGI (HOP-92 NSCLC): > 100 µM | TGI (HOP-18 NSCLC): > 100 µM | TGI (786-0 renal): > 100 µM | TGI (IGROV1 ovarian): > 100 µM | TGI (A498 renal): > 100 µM | TGI (TK-10 renal): > 100 µM | TGI (SF-539 CNS): > 100 µM | TGI (HT29 colon): > 100 µM | TGI (OVCAR-4 ovarian): > 100 µM | TGI (OVCAR-8 ovarian): > 100 µM | TGI (HCT-15 colon): > 100 µM | TGI (K-562 leukemia): > 100 µM | TGI (M14 melanoma): > 100 µM | TGI (SK-MEL-2 melanoma): > 100 µM | TGI (M19-MEL melanoma): > 100 µM | TGI (NCI-H23 lung): > 100 µM | TGI (OVCAR-5 ovarian): > 100 µM | TGI (LOX IMVI melanoma): > 100 µM | TGI (KM20L2 colon): > 100 µM
